The compounds below were run against T1, Cloned Human Dopamine D3 Receptors (Homo sapiens, UniProt P35462) (assay: [N-Methyl-3H]Spiroperidol binding to cloned human dopamine D3 receptors). Details: D3 Ki (nM).
T1 construct: expressed in transfected cells; membrane homogenate
Source text: [N-Methyl-^3H]Spiroperidol Binding to Cloned Human Dopamine D3 Receptors
This assay measures the in vitro activity of compounds on cloned human dopamine (D3) receptors and predicts the direct dopamine-blocking properties of putative neuropsychiatric agents at human dopamine D3 receptors.
The D3 gene was isolated from a human striatal cDNA library (Stratagene). The gene was sequenced and sub-cloned into the expression vector RC/RSV (Invitrogen). CHO (Chinese Hamster Ovary) cells were stably transfected with 10 µg of the D3/RSV plasmid using the DOTAP method from Boehringer Mannheim and 72 clones that were G418 resistant were isolated. Using mRNA and binding displacement data a single high expressing clone was identified. This clone was then grown in large batches for the purpose of developing a 96 well format assay.
• 1. One plate (10 cm) with approximately 2-3 million D3 cells per plate is incubated with 1 ml of Trypsin-EDTA at room temperature for -2 min or until cells have lifted off plates. Four ml of Ham's F12 + 10% Fetal Bovine Serum + 1% Penicillin/Streptomycin + G418 (400 µg/ml) medium are added to resuspend cells and 1 ml of this is added to each large plate (15 cm) containing 19 ml of the same medium as mentioned above. • 2. The 5 large plates are incubated at 37°C + 5% CO2 for - 3 days or until the cells are confluent. • 3. After these plates are confluent, they are split into 10 large plates. Medium is aspirated off, 2 ml of Trypsin-EDTA are added to each plate and plates are incubated at RT for 2 min or until cells have lifted off the plate. Eight ml of the F12 medium (same medium as #1 above) are added to each plate (10 ml total) to resuspend the cells and 5 ml are transferred to the 2 new plates containing 15 ml of the F12 media. • 4. The 10 large plates are incubated at 37°C + 5% CO2 for ∼ 2 days or until the cells are confluent. • 5. The 10 large plates are split into 60 large plates (using Trypsin-EDTA as #3 except 4 ml of F12 medium are added to resuspend cells and 1 ml is aliquoted to 6 new plates containing 19 ml of F12 medium each). • 6. Plates are incubated at 37°C + 5% CO2 for - 3 days or until cell are confluent. • 7. The 60 large plates are then split into 60 roller bottles (100-150 million cells/bottle). Medium is aspirated off , 2 ml of Trypsin-EDTA are added to each plate and incubated at RT for -2 minutes or until cells have lifted off plates. Eight ml of F12 medium are added to each plate to resuspend cells and the entire 10 ml are added to 1 roller bottle containing 90 ml of the F12 medium. • 8. The 60 roller bottles are immediately placed on their sides and transferred to the roller bottle incubator. They are incubated at 37°C + 5% CO2 for ~ 3-5 days. Cells are spun at 30-40% motor speed in the Forma incubator. • 9. Medium is poured off and cells are washed 2X in PBS. • 10. Cells are then scraped off in 20 ml of PBS and the bottles are rinsed again with 5 ml of PBS to remove any remaining cells. Cells are stored on ice before membrane prepration. • 11. The yield for 60 D3 roller bottles has varied from - 260-500 mg. Note: All tissue culture reagents are from Gibco-BRL.
The cells are harvested into 250 ml centrifuge tubes with 100 volumes of cold phosphate buffered saline (PBS) and spun down (1200xG for 10 min at 4°C). The medium is removed and 100 ml PBS are added to each centrifuge tube, cells are resuspened and spun down again. The PBS is removed and the final pellet is homogenized in an appropriate volume of 10% DMSO with a polytron on ice at a medium setting.
A 200 µl sample membrane homogenate is added to 200 µl of 1% SDS, vortexed and allowed to stand for 5 min. Aliquots (25, 50 and 100 µl) of this mixture are assayed in duplicate following the standard Bio-Rad DC protein assay protocol (kit catalog number 500-0112) and using reagent S. Absorbance readings are made at 750 nm (note: the most accurate protein OD readings are between 0.1-0.5 units). […]

T1 sequence (P35462 whole entry): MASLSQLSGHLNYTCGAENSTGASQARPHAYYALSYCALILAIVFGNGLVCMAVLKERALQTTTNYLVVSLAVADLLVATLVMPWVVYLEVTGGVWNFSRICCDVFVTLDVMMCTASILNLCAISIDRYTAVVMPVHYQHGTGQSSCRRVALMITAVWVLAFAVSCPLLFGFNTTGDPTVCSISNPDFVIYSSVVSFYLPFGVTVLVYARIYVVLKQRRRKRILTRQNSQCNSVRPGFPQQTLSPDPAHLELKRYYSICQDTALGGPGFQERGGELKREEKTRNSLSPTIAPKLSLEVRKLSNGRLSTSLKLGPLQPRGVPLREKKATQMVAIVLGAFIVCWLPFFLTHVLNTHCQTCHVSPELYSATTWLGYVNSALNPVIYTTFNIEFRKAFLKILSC

In order of falling Ki:
1. O=C(NC1CCN(CC2CCCCC2)CC1)C1CC1CN1CCC(c2noc3ccsc23)CC1 (stereo not drawn) [compound 831823]  2.37 nM
2. O=C(NC1CCN(Cc2cc(F)ccc2F)CC1)C1CC1CN1CCC(c2noc3ccsc23)CC1 (stereo not drawn) [compound 832345]  1.46 nM
3. O=C(NC1CCN(Cc2ccc(C(F)(F)F)cc2)CC1)C1CC1CN1CCC(c2noc3ccsc23)CC1 (stereo not drawn) [compound 832349]  0.843 nM

Same assay, conditions: Table 2; unit inferred; read-out: d3Ki

In order of rising Ki:
1. CC1CCC(NC(=O)C2CC2CN2CCN(c3cccc(Cl)c3Cl)CC2)CC1 (stereo not drawn) [compound 817037]  0.98 nM
2. CCCc1cc(N2CCCN(C[C@@H]3C[C@H]3C(=O)N[C@H]3CC[C@H](CC)CC3)CC2)nc(C(C)(C)C)n1 [compound 817272]  1.72 nM
3. CCCc1cc(N2CCCN(C[C@@H]3C[C@H]3C(=O)N[C@H]3CC[C@H](C)CC3)CC2)nc(C(C)(C)C)n1 [compound 817273]  3.05 nM
4. C[C@H]1CC[C@H](NC(=O)[C@@H]2C[C@H]2CN2CCN(c3csc4cc(C(F)(F)F)ccc34)CC2)CC1 [817569A]  5.38 nM
5. COCCNC(=O)C1CCC(NC(=O)C2CC2CN2CCN(c3csc4cc(C(F)(F)F)ccc34)CC2)CC1 (stereo not drawn) [compound 817049]  7.02 nM
6. CC[C@H]1CC[C@H](NC(=O)[C@@H]2C[C@H]2CN2CCCN(c3ccc(C)cn3)CC2)CC1 [compound 827732]  10.5 nM
7. CC[C@H]1CC[C@H](NC(=O)[C@@H]2C[C@H]2CN2CCN(c3csc4cc(C(F)(F)F)ccc34)CC2)CC1 [compound 818499]  22.1 nM
8. O=C(NCc1ccco1)[C@@H]1C[C@H]1CN1CCN(c2csc3cc(C(F)(F)F)ccc23)CC1 [compound 826069]  27.2 nM
9. O=C(NC1CCCCCCCC1)[C@@H]1C[C@H]1CN1CCN(c2csc3cc(C(F)(F)F)ccc23)CC1 [compound 826655]  31 nM
10. CCCN(C(=O)CCCCN1CCN(c2csc3cc(F)ccc23)CC1)c1ccc(F)cc1 [compound 814648]  39.6 nM
11. C[C@@]1(C(=O)NCc2ccc(C(F)(F)F)cc2)C[C@H]1CN1CCN(c2csc3cc(C(F)(F)F)ccc23)CC1 [compound 825899]  42.9 nM
12. O=C(NCc1ccccn1)[C@@H]1C[C@H]1CN1CCN(c2csc3cc(C(F)(F)F)ccc23)CC1 [compound 826065]  175 nM
13. CC(C)(C)c1ccc(NC(=O)CCCCN2CCN(c3csc4cc(F)ccc34)CC2)cc1 [compound 822136]  207 nM
14. CC(C)(C)c1ccc(NC(=O)CCCN2CCN(c3csc4cc(F)ccc34)CC2)cc1 [compound 822147]  217 nM
15. CCOC(=O)C1CCC(NC(=O)CCCN2CCN(c3csc4cc(F)ccc34)CC2Cc2ccccc2)CC1 (stereo not drawn) [compound 827086]  334 nM
16. O=C(CCCCN1CCN(c2csc3cc(F)ccc23)CC1)N(Cc1ccccc1)c1cccc(Oc2ccccc2)c1 [compound 822143]  338 nM

Same assay, conditions: Table 2 part the 10th table; read-out: d3Ki

In order of rising Ki:
1. CC1CCN(C(=O)[C@@H]2C[C@H]2CN2CCCN(c3csc4cc(F)ccc34)CC2)CC1 [compound 826874]  1.72 nM
2. CCOC(=O)C1CN(C(=O)[C@@H]2C[C@H]2CN2CCN(c3csc4cc(F)ccc34)CC2)CCC1=O (stereo partly drawn) [compound 826671]  6.8 nM
3. O=C([C@@H]1C[C@H]1CN1CCN(c2csc3cc(C(F)(F)F)ccc23)CC1)N1CCC(n2c(=O)[nH]c3ccccc32)CC1 [compound 826903]  7.47 nM
4. O=C([C@@H]1C[C@H]1CN1CCN(c2csc3cc(C(F)(F)F)ccc23)CC1)N1CCCC1 [compound 826657]  14 nM
5. CC1CC(C)CN(C(=O)CCCN2CCCN(c3csc4cc(F)ccc34)CC2)C1 (stereo not drawn) [compound 826838]  14.6 nM
6. CC1CCCCN1C(=O)CCCN1CCN(c2csc3cc(F)ccc23)CC1CCCc1ccccc1 (stereo not drawn) [compound 827114]  120 nM
7. CCOC(=O)C1CCN(C(=O)CCCN2CCN(c3csc4cc(F)ccc34)CC2CCCc2ccccc2)CC1 (stereo not drawn) [compound 827112]  126 nM
8. CN(C)C1CCN(C(=O)CCCN2CCCN(c3csc4cc(F)ccc34)CC2)C1 (stereo not drawn) [compound 826843]  126 nM
9. CCOC(=O)C1CN(C(=O)C2CC2CN2CCCN(c3csc4cc(C(F)(F)F)ccc34)CC2)CCC1=O (stereo not drawn) [compound 826685]  154 nM

Same assay, conditions: d3Ki, Table 2 part the 10th table

Work on `O=C([C@@H]1C[C@H]1CN1CCN(c2csc3cc(F)ccc23)CC1)N1CCC(O)CC1` [compound 826672] yielded a Ki of 0.64 nM.

Same assay, conditions: read-out: D3 Ki

In order of falling Ki:
1. Cn1nc(C2CCN(C[C@@H]3C[C@H]3C(=O)NCCCn3ccnc3)CC2)c2cccc(C(F)(F)F)c21 [A002329093]  411 nM
2. O=C(C1CC1CN1CCC(c2noc3ccsc23)CC1)N1CCN(CCc2ccccn2)CC1 (stereo not drawn) [compound 832001]  157 nM
3. CN1CCN(CCCNC(=O)[C@@H]2C[C@H]2CN2CCC(c3nn(CC(F)(F)F)c4ccsc34)CC2)CC1 [A002439265]  88 nM
4. C[C@H]1CC[C@H](NC(=O)[C@@H]2C[C@H]2CN2CCC(c3nc4cc(Cl)ccc4o3)CC2)CC1 [compound 833692]  72.9 nM
5. O=C(NC1CCC(O)CC1)C1CC1CN1CCN(c2noc3ccsc23)CC1 (stereo not drawn) [compound 831955]  47.3 nM
6. COc1ccc2c(c1)c(N1CCN(C[C@@H]3C[C@H]3C(=O)NCCCN(C)C)CC1)nn2C [compound 833631]  31.3 nM
7. CC(C)(C)OC(=O)N1CCCC(CNC(=O)[C@@H]2C[C@H]2CN2CCC(c3noc4ccsc34)CC2)C1 (mixture of isomers) [compound 833374]  30.6 nM
8. O=C(NCCCc1ccccc1)[C@@H]1C[C@H]1CN1CCN(c2noc3ccsc23)CC1 [compound 831494]  28.3 nM
9. O=C(NCCCN1CCOCC1)[C@@H]1C[C@H]1CN1CCC(c2noc3ccsc23)CC1 [compound 831046]  15.5 nM

Same assay, conditions: read-out: d3Ki

In order of rising Ki:
1. C[C@H]1CC[C@H](NC(=O)[C@@H]2C[C@H]2CN2CCN(c3ccccc3Cl)CC2)CC1 [compound 827177]  1 nM
2. CC[C@H]1CC[C@H](NC(=O)[C@@H]2C[C@H]2CN2CCN(c3ccc(Cl)c(C(F)(F)F)c3)CC2)CC1 [compound 827238]  2.48 nM
3. C[C@H]1CC[C@H](NC(=O)[C@@H]2C[C@H]2CN2CCN(c3ccccn3)CC2)CC1 [compound 827175]  4 nM
4. C[C@H]1CC[C@H](NC(=O)[C@@H]2C[C@H]2CN2CCN(c3ccc(Cl)c(C(F)(F)F)c3)CC2)CC1 [compound 827199]  4.34 nM
5. O=C(NCc1cccnc1)[C@@H]1CCC[C@H]1N1CCN(c2csc3cc(F)ccc23)CC1 [825834G]  6.9 nM
6. O=C(NCc1ccc2c(c1)OCO2)[C@@H]1CCCC[C@@H]1CN1CCN(c2csc3cc(C(F)(F)F)ccc23)CC1 [compound 826115]  72.3 nM
7. C[C@H]1CC[C@H](NC(=O)[C@@H]2C[C@H]2CN2CCN(c3ccc(C(F)(F)F)cc3Cl)CC2)CC1 [compound 827181]  97.2 nM
8. O=C(NCc1ccco1)[C@@H]1CCCC[C@@H]1CN1CCN(c2csc3cc(C(F)(F)F)ccc23)CC1 [compound 826122]  130 nM
9. O=C(NC1CCCCC1)[C@@H]1CCCC[C@@H]1CN1CCN(c2csc3cc(C(F)(F)F)ccc23)CC1 [compound 826113]  200 nM
10. CC(C)[C@@H]1CC[C@@H](C)C[C@H]1NC(=O)[C@@H]1C[C@H]1CN1CCN(c2csc3cc(C(F)(F)F)ccc23)CC1 [compound 826891]  263 nM
11. Cc1cccc(CNC(=O)[C@@H]2CCCC[C@H]2CN2CCN(c3csc4cc(C(F)(F)F)ccc34)CC2)c1 [compound 826092]  293 nM
12. O=C(NCc1ccc2c(c1)OCO2)[C@@H]1CCCC[C@H]1CN1CCN(c2csc3cc(C(F)(F)F)ccc23)CC1 [compound 826098]  451 nM
13. O=C(Nc1cccnc1)[C@@H]1CCCC[C@@H]1CN1CCN(c2csc3cc(C(F)(F)F)ccc23)CC1 [compound 826118]  568 nM
